# Results as given in patent publication US20250242017A1, “HISTAMINE AND HRH1 SIGNALING ACTIVITY AS BIOMARKERS AND ASSOCIATED METHODS” (Board of Regents, The University of Texas System, priority 2022, published 2025).
# Tests used:
# [1] = test system: CD8+ T cells; assay: In vitro co-culture of macrophages with T cells; assay type: cell-based, mouse
# Protocol: In vitro co-culture with T cells. Spleens from wild-type C57BL/6 or BALB/c mice were harvested and filtered through a […] cell strainer to generate a single-cell suspension. After red blood cell lysis, splenocytes were counted and plated in complete Roswell Park Memorial Institute 1640 medium supplemented with […] b-mercaptoethanol and 10 mM HEPES onto 12-well plates coated with […] anti-CD3 (clone 145-2C11, BioLegend) and […] anti-CD28 (clone 37N, BioLegend) antibodies. Spleen T cells were activated for 48 hours before co-culture with macrophages. To educate the macrophages, we co-cultured naïve BMDMs with tumor cells at a ratio of 1:1 or with tumor cell-derived conditioned medium for 48 hours. Macrophages were seeded with activated T cells at a ratio of 5:1. After co-culture for another 24 or 48 hours, T cells were collected for flow cytometry analysis.
# (§1) Flow cytometry staining and analysis.
# [2] = test system: EO771 tumors
# From the text: (§2) Tumor inductions and treatment experiments.
# (§3) Isolation of tumor-infiltrating cells.
# as §1
# [3] = test system: CT26 tumors; assay: CT26 tumor model with or without OVA-induced allergic airway disease; assay type: in vivo, mouse
# From the text: as §2, §3, §1
# [4] = test system: B16-GM tumors; assay: B16-GM melanoma model
# Protocol: Tumor inductions and treatment experiments. […] For LLC and B16-GM models, 2×10^5 tumor cells were subcutaneously injected into the back of C57BL/6 mice. […] Treatments were given as single agents or in combination, with the following regimen for each drug. […] Treatments were initiated on day 5 after tumor inoculation for the entire duration of the experiment. […] Anti-VISTA antibody (clone 13F3, Bio X Cell, 300 mg/mouse) was injected subcutaneously every day for 10 days starting on day 7, followed by continuous injection every 2 days for the rest of the duration of the experiment (Le Mercier et al., 2014). For in vivo CD8+ T cell depletion, mice were treated with 200 mg of anti-CD8 antibody every 3-4 days starting at 3 days before B16-GM tumor inoculation. […] Tumor size was measured by calipers every second or third day when tumors were palpable, and the volume was calculated using the formula V=as (width×width×length)/2.
# Isolation of tumor-infiltrating cells. Mouse tumor samples were chopped with scissors and then subjected to enzymatic digestion with 2 mg/ml collagenase A (Roche) in DMEM for 1 hour at 37° C. Next, tissues were filtered through 70-mm filters (BD Biosciences) to achieve single-cell suspensions. After treatment with red blood cell lysis buffer for 5 minutes at room temperature, all samples were washed and re-suspended in flow cytometry buffer (phosphate-buffered saline/0.5% albumin/2 mM EDTA) or DMEM depending on further use.
# Flow cytometry staining and analysis. Live single cells were sub-gated by staining with Fixable Viability Dye eFluor 450 (eBioscience) for 15 minutes at 4° C. For blocking of Fc receptors, cells were then pre-incubated with purified anti-CD16/32 antibody (clone 93, BioLegend) for 10 minutes on ice before immunostaining. After one wash with flow cytometry buffer, cells were incubated with appropriate dilutions of various combinations of the following antibodies. Primary antibodies to cell surface markers directed against CD45 (30-F11), CD3 (145-2C11), CD8a (53¬6.7), CD11b (M1/70), Gr-1 (RB6-8C5), F4/80 (BM8), CD206 (C068C2), I-A/I-E (M5/114.15.2), VISTA (MHSA), Tim-3 (B8.2C12), CD11c (N418), CD24 (M1/69), GITRL (YGL 386), ICOSL (HK5.3), 4-1BBL (TKS-1), CD276 (RTAA15), OX40L (RM134L), Galectin-9 (RG9-35), PD-L1 (10F.9G2), and PD-L2 (TY25) were from BioLegend; against HRH1 (480054), from R&D Systems; against HRH1 (AHR-001), from Alomone Labs; and against Siglec-F (E50-2440), from BD Biosciences. For intracellular staining, cells were fixed, permeabilized using Foxp3/Transcription Factor Staining Buffer Set (eBioscience), and then stained with fluorochrome-conjugated antibodies to Ki-67 (16A8) and PRF1 (S16009A) from BioLegend.
# [5] = test system: bone marrow-derived macrophages (BMDMs); settings: TCM-treated WT BMDMs; FEXO 10 mM, 48 h
# Protocol: Generation of naïve bone marrow-derived macrophages (BMDMs). Bone marrow cells were collected from femurs obtained from 8- to 10-week-old C57BL/6 or BALB/c mice. After red blood cell lysis, bone marrow cells were seeded at a density of 5×10^6 cells/150×15 mm Petri dish and cultured at 37° C. in complete Dulbecco modified Eagle medium (DMEM) containing 20% L929 cell-conditioned medium, providing macrophage colony-stimulating factor. Macrophages were ready for use on day 7 following a fresh medium change on day 4.
# Macrophage polarization and stimulation. To polarize macrophages toward an M1-like phenotype, we stimulated PBMC-derived macrophages or BMDMs with IFN-g (20 ng/ml, PeproTech) for 48 hours. To induce an M2-like phenotype, we treated THP-1-derived macrophages or BMDMs with IL-4 (20 ng/mL, PeproTech) for 48 hours. […] To stimulate macrophages with tumor cell-derived conditioned medium (TCM), we cultured BMDMs with complete medium containing 50% TCM (volume).
# Flow cytometry staining and analysis. Live single cells were sub-gated by staining with Fixable Viability Dye eFluor 450 (eBioscience) for 15 minutes at 4° C. For blocking of Fc receptors, cells were then pre-incubated with purified anti-CD16/32 antibody (clone 93, BioLegend) for 10 minutes on ice before immunostaining. […]
# [6] = test system: macrophages; assay: Intracellular calcium measurement (Fluo-Forte); assay type: cell-based, mouse; settings: after histamine or TCM treatment
# Protocol: Intracellular calcium measurement. Intracellular Ca2+ was determined using the Fluo-Forte calcium assay kit (Enzo Life Sciences) according to the manufacturer's instructions. Fluorescence was measured using a BD FACSCanto II Flow Cytometer.
# [7] = test system: OVA-transduced EO771 tumor cells; assay: In vitro T cell killing assay (OT-I); assay type: cell-based, mouse; settings: in presence of FEXO-treated macrophages
# Protocol: In vitro T cell killing assays. Ovalbumin (OVA)-expressing EO771 cells alone or co-cultured with macrophages at a ratio of 1:2 were plated into 12-well plates. The following day, OT-I T cells pre-activated by OVA257-264 were added to the plates at the indicated ratio. After co-culture for another 48 hours, the tumor cells were harvested and counted to determine T cell killing ability.
# [8] = test system: CT26 tumors; assay: CT26 colorectal carcinoma model; settings: WT mice
# Protocol: Tumor inductions and treatment experiments. […] For the CT26 model, 2×10^5 CT26 cells were subcutaneously injected into the back of BALB/c mice. […] Treatments were given as single agents or in combination, with the following regimen for each drug. […] Treatments were initiated on day 5 after tumor inoculation for the entire duration of the experiment. […] Anti-VISTA antibody (clone 13F3, Bio X Cell, 300 mg/mouse) was injected subcutaneously every day for 10 days starting on day 7, followed by continuous injection every 2 days for the rest of the duration of the experiment (Le Mercier et al., 2014). […] Tumor size was measured by calipers every second or third day when tumors were palpable, and the volume was calculated using the formula V=as (width×width×length)/2.
# [9] = test system: EMT6 tumors; assay: EMT6 tumor model with or without OVA-induced allergic airway disease; assay type: in vivo, mouse
# From the text: as §2, §3, §1
# [10] = test system: 4T1 tumors; assay: 4T1 mammary tumor model; assay type: in vivo, mouse
# From the text: as §2, §3, §1
# [11] = test system: LLC tumors; assay: LLC lung carcinoma model; assay type: in vivo, mouse; settings: FEXO-treated vs vehicle-treated
# From the text: as §2, §3, §1
# [12] = FEXO-treated WT mice vs controls
# [13] = FEXO-treated vs vehicle-treated WT mice
# [14] = PD-L1-/- mice treated with FEXO
smiles,measurement,setting,value
"CC(C)(C(=O)O)c1ccc(C(O)CCCN2CCC(C(O)(c3ccccc3)c3ccccc3)CC2)cc1 (centres unmarked) [FEXO, fexofenadine]",T cell activation/killing,[1]; FEXO treatment of HRH1-/- macrophages vs vehicle-treated HRH1-/- macrophages,did not increase
same,"TAM-mediated T cell suppression (T cell proliferation, IFN-g, PRF1)",[1]; FEXO-treated macrophages cultured with WT splenic T cells,abrogated TAM-mediated T cell suppression
same,VISTA expression on TAMs,[2]; [12],Reduced VISTA expression
same,numbers of IFN-g+ and PRF1+ CD8+ T cells,[2]; [13],increased numbers
same,tumor growth,[2]; [13],reduced tumor growth
same,survival,[2]; [14],dramatically prolonged survival
same,tumor inhibition,[2]; [14],most effective tumor inhibition
same,allergy-increased CT26 tumor growth,[3]; OVA-allergic BALB/c mice,largely blocked by FEXO treatment
same,sensitivity of tumors to ICB therapy with FEXO treatment,"[3]; allergic mice, ICB+FEXO",largely restored sensitivity
same,VISTA expression on TAMs,[4]; [12],Reduced VISTA expression
same,inhibition of B16-GM tumor growth under CD8+ T cell depletion,"[4]; FEXO-treated WT mice, anti-CD8 antibodies",blocked by depleting CD8+ T cells
same,numbers of IFN-g+ and PRF1+ CD8+ T cells,[4]; [13],increased numbers
same,tumor growth,[4]; [13],reduced tumor growth
same,B16-GM lung metastases,"[4]; after surgical removal of primary melanomas at 100 mm3, FEXO vs vehicle",inhibited
same,"M1-M2 polarization status (MHCII, CD206)",[5],polarized macrophages toward an M1-like phenotype
same,intracellular free Ca2+ levels,[6],higher in WT macrophages than in HRH1−/− macrophages and FEXO-treated WT macrophages
same,OT-I cell-mediated killing of OVA-transduced EO771 tumor cells,[7],increased ovalbumin (OVA)-specific OT-I cell-mediated killing
same,CT26 tumor growth,[8],delayed tumor growth
same,allergy-accelerated EMT6 tumor growth,[9]; OVA-allergic BALB/c mice,largely blocked by FEXO treatment
same,sensitivity of tumors to ICB therapy with FEXO treatment,"[9]; allergic mice, ICB+FEXO",largely restored sensitivity
same,VISTA expression on alveolar macrophages from lung metastases,[10]; FEXO-treated WT mice bearing 4T1 tumor vs controls,downregulated
same,VISTA on TAMs,[10]; FEXO-treated vs vehicle-treated,Decreased VISTA on TAMs
same,VISTA on TAMs,[11],Decreased VISTA on TAMs
